Experimental data reported in US20130281398A1, “TREATMENT OF DISEASES BY EPIGENETIC REGULATION” (RVX Therapeutics Inc., priority 2012, published 2013).

Biological target: T1, Brd4 bromodomain 1 (Homo sapiens, UniProt O60885)
T1 construct: Illustrative results with the first bromodomain of Brd4; made in house; host or cells: E. coli BL21(DE3)
Assay: TR-FRET inhibition of tetra-acetylated histone H4 binding to Brd4 bromodomain 1
Conditions: tetra-acetylated histone H4 peptide and Brd4 bromodomain 1, 2 hours at room temperature
Method: Proteins were cloned and overexpressed with a N-terminal 6×His tag, then purified by nickel affinity followed by size exclusion chromatography. Briefly, E. coli BL21(DE3) cells were transformed with a recombinant expression vector encoding N-terminally Nickel affinity tagged bromodomains from Brd2, Brd3, Brd4. Cell cultures were incubated at 37° C. with shaking to the appropriate density and induced overnight with IPTG. The supernatant of lysed cells was loaded onto Ni-IDA column for purification. Eluted protein was pooled, concentrated and further purified by size exclusion chromatography. Fractions representing monomeric protein are pooled, concentrated, aliquoted, and frozen at −80° C. for use in subsequent experiments.
Binding of tetra-acetylated histone H4 and BET bromodomains was confirmed by a Time Resolved Fluorescence Resonance Energy Transfer (TR-FRET) method. N-terminally His-tagged bromodomains (200 nM) and biotinylated tetra-acetylated histone H4 peptide (25-50 nM, Millipore) were incubated in the presence of Europium Cryptate-labeled streptavidin (Cisbio Cat. #610SAKLB) and XL665-labeled monoclonal anti-His antibody (Cisbio Cat. #61 HISXLB) in a white 96 well microtiter plate (Greiner). For inhibition assays, serially diluted test compound was added to these reactions in a 0.2% final concentration of DMSO. Final buffer concentrations were 30 mM HEPES pH 7.4, 30 mM NaCl, 0.3 mM CHAPS, 20 mM phosphate pH 7.0, 320 mM KF, 0.08% BSA). After 2 hours incubation at room temperature, the fluorescence by FRET was measured at 665 and 620 nm by a SynergyH4 plate reader (Biotek). The binding inhibitory activity was shown by a decrease in 665 nm fluorescence relative to 620 nm. IC50 values were determined from a dose response curve.

| SMILES | FRET activity (<50 uM) |
| --- | --- |
| COc1cc(OC)c2c(=O)[nH]c(-c3ccc(OCCNc4nnc(-c5ccccc5)[nH]4)c(C)c3)nc2c1 [Example 29, 5,7-Dimethoxy-2-{3-methyl-4-[2-(5-phenyl-4H-[1,2,4]triazol-3-ylamino)-ethoxy]-phenyl}-3H-quinazolin-4-one] | Active |
| COc1cc(OC)c2c(=O)[nH]c(-c3cc(C)c(OCCNc4cc(C)on4)c(C)c3)nc2c1 [Example 46, 2-(3,5-dimethyl-4-(2-(5-methylisoxazol-3-ylamino)ethoxy)phenyl)-5,7-dimethoxyquinazolin-4(3H)-one] | Active |
| COc1cc(OC)c2c(=O)[nH]c(-c3cc(C)c(OCCNc4nc(OC)cc(OC)n4)c(C)c3)nc2c1 [Example 49, 2-(4-(2-(4,6-dimethoxypyrimidin-2-ylamino)ethoxy)-3,5-dimethylphenyl)-5,7-dimethoxyquinazolin-4(3H)-one] | Inactive |
| COc1cc(OC)c2c(=O)[nH]c(-c3cc(C)c(OCCNC=O)c(C)c3)nc2c1 [Example 42, N-(2-(4-(5,7-dimethoxy-4-oxo-3,4-dihydroquinazolin-2-yl) 2,6-dimethylphenoxy)ethyl)formamide] | Active |
| Cc1cc(-c2nc3ccc(Nc4ccccn4)cc3c(=O)[nH]2)cc(C)c1O [Example 9, 2-(4-hydroxy-3,5-dimethyl-phenyl)-6-(pyridin-2-ylamino)-3H-quinazolin-4-one] | Inactive |
| COc1cc(OC)c2c(=O)[nH]c(-c3ccc4cc(CCO)[nH]c4c3)nc2c1 [Example 52, 2-[2-(2-hydroxyethyl)-1H-indol-6-yl]-5,7-dimethoxy-3H-quinazolin-4-one] | Active |
| Cc1cc(-c2nc3cccc(Cl)c3c(=O)[nH]2)cc(C)c1OCCO [Example 27, 5-chloro-2-(4-(2-hydroxyethoxy)-3,5-dimethylphenyl)quinazolin-4(3H)-one] | Inactive |
| COc1cc(OC)c2c(=O)[nH]c(-c3cc(C)c(OCCNC=O)c(C)c3)cc2c1 [Example 35, N-{2-[4-(6,8-dimethoxy-1-oxo-1,2-dihydro-isoquinolin-3-yl)-2,6-dimethyl-phenoxy]-ethyl}-formamide] | Active |
| Cc1cc(-c2nc3cc(OCCN(C)C)ccc3c(=O)[nH]2)cc(C)c1O [Example 7, 7-(2-dimethylamino-ethoxy)-2-(4-hydroxy-3,5-dimethylphenyl)-3H-quinazolin-4-one] | Active |
| COc1cc(OC)c2c(=O)[nH]c(-c3cc(C)c(OCC(=O)NCc4ccccc4)c(C)c3)nc2c1 [Example 24, N-benzyl-2-[4-(5,7-dimethoxy-4-oxo-3,4-dihydroquinazolin-2-yl)-2,6-dimethylphenoxy]acetamide] | Active |
| COc1cc(OC)c2c(=O)[nH]c(-c3cc(C)c(OCCNC(C)=O)c(C)c3)nc2n1 [Example 31, N-{2-[4-(5,7-dimethoxy-4-oxo-3,4-dihydro-pyrido[2,3-d]pyrimidin-2-yl)-2,6-dimethyl-phenoxy]-ethyl}-acetamide] | Active |
| COc1cc(OC)c2c(=O)[nH]c(-c3cc(C)c(OCCNS(=O)(=O)N(C)C)c(C)c3)nc2c1 [Example 44, N-(2-(4-(5,7-dimethoxy-4-oxo-3,4-dihydroquinazolin-2-yl)-2,6-dimethylphenoxy)ethyl)dimethylamino-N-sulfonamide] | Active |
| COc1cc(OC)c2c(=O)[nH]c(-c3cc(C)c(CNC(C)=O)c(C)c3)nc2n1 [Example 33, N-[4-(5,7-dimethoxy-4-oxo-3,4-dihydro-pyrido[2,3-d]pyrimidin-2-yl)-2,6-dimethyl-benzyl]-acetamide] | Active |
| COc1cc(OC)c2c(=O)[nH]c(-c3cc(C)c(OCCNc4ccon4)c(C)c3)nc2c1 [Example 48, 2-(4-(2-(isoxazol-3-ylamino)ethoxy)-3,5-dimethylphenyl)-5,7-dimethoxyquinazolin-4(3H)-one] | Active |
| COc1cc(OC)c2c(=O)[nH]c(-c3cc(C)c(OCC(O)CO)c(C)c3)nc2c1 (centres unmarked) [Example 16, 2-[4-(2,3-Dihydroxy-propoxy)-3,5-dimethyl-phenyl]-5,7-dimethoxy-3H-quinazolin-4-one] | Active |
| Cc1cc(-c2nc3ccc(CNS(C)(=O)=O)cc3c(=O)[nH]2)cc(C)c1O [Example 11, N-((2-(4-hydroxy-3,5-dimethylphenyl)-4-oxo-3,4-dihydroquinazolin-6-yl)methyl)methanesulfonamide] | Active |

| SMILES | FRET activity (<50 uM) |
| --- | --- |
| COc1cc(OCCN)cc2nc(-c3cc(C)c(O)c(C)c3)[nH]c(=O)c12 [Example 3, 7-(2-amino-ethoxy)-2-(4-hydroxy-3,5-dimethyl-phenyl)-5-methoxy-3H-quinazolin-4-one] | Active |
| Cc1cc(-c2nc3ccc(CN4CCN(C)CC4)cc3c(=O)[nH]2)cc(C)c1O [Example 10, 2-(4-hydroxy-3,5-dimethylphenyl)-6-((4-methylpiperazin-1-yl)methyl)quinazolin-4(3H)-one] | Active |
| COc1cc(OC)c2c(=O)[nH]c(-c3cc(C)c(OCCNc4nc(C)no4)c(C)c3)nc2c1 [Example 30, 2-{3,5-Dimethyl-4-[2-(3-methyl-[1,2,4]oxadiazol-5-ylamino)-ethoxy]-phenyl}-5,7-dimethoxy-3H-quinazolin-4-one] | Active |
| COc1cc(OC)c2c(=O)[nH]c(-c3ccc(CCCO)c(OC)c3)nc2c1 [Example 51, 2-[4-(3-hydroxy-propyl)-3-methoxy-phenyl]-5,7-dimethoxy-3H-quinazolin-4-one] | Active |
| COc1cc(OC)c2c(=O)[nH]c(-c3ccc4oc(CO)cc4c3)nc2c1 [Example 19, 2-(2-hydroxymethyl-benzofuran-5-yl)-5,7-dimethoxy-3H-quinazolin-4-one] | Inactive |
| COc1cc(OC)c2c(=O)[nH]c(-c3cc(C)c(OCCNCC(F)(F)F)c(C)c3)nc2c1 [Example 34, 2-{3,5-dimethyl-4-[2-(2,2,2-trifluoro-ethylamino)-ethoxy]-phenyl}-5,7-dimethoxy-3H-quinazolin-4-one] | Inactive |
| COc1ccc(NC(=O)COc2c(C)cc(-c3nc4cc(OC)cc(OC)c4c(=O)[nH]3)cc2C)cc1 [Example 23, 2-[4-(5,7-Dimethoxy-4-oxo-3,4-dihydro-quinazolin-2-yl)-2,6-dimethyl-phenoxy]-N-(4-methoxy-phenyl)-acetamide] | Active |
| Cc1cc(-c2nc3ccc(Nc4ccncc4)cc3c(=O)[nH]2)cc(C)c1O [Example 8, 2-(4-hydroxy-3,5-dimethyl-phenyl)-6-(pyridin-4-ylamino)-3H-quinazolin-4-one] | Active |
| COc1cc(OC)c2c(=O)[nH]c(-c3cc(C)c(OCCN(C)C(C)=O)c(C)c3)nc2c1 [Example 41, N-(2-(4-(5,7-dimethoxy-4-oxo-3,4-dihydroquinazolin-2-yl)-2,6-dimethylphenoxy)ethyl)-N-methylacetamide] | Active |
| COc1cc(OC)c2c(=O)[nH]c(-c3cc(C)c(OCCNS(=O)(=O)C(C)C)c(C)c3)nc2c1 [Example 37, N-(2-(4-(5,7-dimethoxy-4-oxo-3,4-dihydroquinazolin-2-yl)-2,6-dimethylphenoxy)ethyl)propane-2-sulfonamide] | Active |
| COc1cc(OCCOCc2ccccc2)cc2nc(-c3cc(C)c(OCCO)c(C)c3)[nH]c(=O)c12 [Example 20, 7-(2-benzyloxy-ethoxy)-2-[4-(2-hydroxy-ethoxy)-3,5-dimethyl-phenyl]-5-methoxy-3H-quinazolin-4-one] | Active |
| COc1ccc2c(=O)[nH]c(-c3cc(C)c(OCCO)c(C)c3)nc2c1 [Example 28, 2-(4-(2-hydroxyethoxy)-3,5-dimethylphenyl)-7-methoxyquinazolin-4(3H)-one] | Inactive |
| Cc1cc(-c2nc3cc(F)cc(F)c3c(=O)[nH]2)cc(C)c1OCCO [Example 14, 5,7-difluoro-2-(4-(2-hydroxyethoxy)-3,5-dimethylphenyl)quinazolin-4(3H)-one] | Inactive |
| CNC(=O)COc1c(C)cc(-c2nc3cc(OC)cc(OC)c3c(=O)[nH]2)cc1C [Example 22, 2-[4-(5,7-dimethoxy-4-oxo-3,4-dihydro-quinazolin-2-yl)-2,6-dimethyl-phenoxy]-N-methyl-acetamide] | Active |
| COc1cc(OC)c2c(=O)[nH]c(-c3cc(C)c(OCCN(C)C)c(C)c3)nc2c1 [Example 40, 2-(4-(2-(dimethylamino)ethoxy)-3,5-dimethylphenyl)-5,7-dimethoxyquinazolin-4(3H)-one] | Active |
| CNCCOc1c(C)cc(-c2nc3cc(OC)cc(OC)c3c(=O)[nH]2)cc1C [Example 36, 2-(3,5-dimethyl-4-(2-(methylamino)ethoxy)phenyl)-5,7-dimethoxyquinazolin-4(3H)-one] | Active |
